{"source": "paper PMC6849653", "about": "“Volasertib preclinical activity in high-risk hepatoblastoma” (Oncotarget, 2019)", "key": {"[1]": {"test_system": "HB-284", "test": "Cell proliferation study, HB-284", "format": "cell-based, human", "conditions": "72 h drug exposure, Cell-Titer Glo, average of quadruplicates, read-out: absolute IC50, HB-284", "experimental": "(§1) On day 0, cells were trypsinized and plated into white walled 384-well plates. On day 1, when cells were 70% confluent, volasertib (S2235, SelleckChem, Houston, TX), SN38 (S4908, SelleckChem) or vincristine (S1241, SelleckChem) suspended in DMSO were added to plates using a Tecan D300e drug printer (Tecan Life Sciences, Switzerland), ensuring less than 1% DMSO. […] Absolute IC50 values were calculated using GraphPad Prism (GraphPad, San Diego, CA). Synergy values were calculated using CalcuSyn (Biosoft, Cambridge, UK) software."}, "[2]": {"test_system": "HB-279", "test": "Cell proliferation study, HB-279", "format": "cell-based, human", "conditions": "72 h drug exposure, Cell-Titer Glo, average of quadruplicates, read-out: absolute IC50, HB-279", "experimental": "as §1"}, "[3]": {"test_system": "HB-295", "test": "Cell proliferation study, HB-295", "format": "cell-based, human", "conditions": "72 h drug exposure, Cell-Titer Glo, average of quadruplicates, read-out: absolute IC50, HB-295", "experimental": "as §1"}, "[4]": {"test_system": "HB-243", "test": "Cell proliferation study, HB-243", "format": "cell-based, human", "conditions": "72 h drug exposure, Cell-Titer Glo, average of quadruplicates, read-out: absolute IC50, HB-243", "experimental": "as §1"}, "[5]": {"test_system": "HB-279", "test": "Cell cycle analysis by flow cytometry (PI staining), HB-279", "format": "cell-based, human", "conditions": "for Percent of cells in S phase / Percent of cells in G2/M / Percent of cells in G1: HB-279, 72 hour treatment, 150 nM volasertib, 3 nM SN38, N=3; for Percent of cells in S phase: DMSO 16.1; for Percent of cells in G2/M: DMSO 26.8; for Percent of cells in G1: DMSO 56.5; for cell cycle arrest as compared to vehicle control: clinically achievable concentrations, 72 hours", "experimental": "After a 72-hour drug treatment, cells were collected and fixed in ice cold 70% ethanol. After rehydration, cells were stained using the Guava Cell Cycle Reagent for Flow Cytometer (4500-0220, MilliporeSigma, Germany) according to the product protocol. Cells were analyzed for propidium iodide using the Guava EasyCyte 8HT (MilliporeSigma). Flow data was analyzed using CytoBank software (Cytobank, Santa Clara, CA)."}, "[6]": {"test_system": "HB-282", "test": "Cell proliferation study, HB-282", "format": "cell-based, human", "conditions": "72 h drug exposure, Cell-Titer Glo, average of quadruplicates, read-out: absolute IC50, HB-282", "experimental": "as §1"}, "[7]": {"conditions": "cited from earlier work"}, "[8]": {"test_system": "Huh-6", "test": "60-agent chemical screen, cell viability (Cell-Titer Glo), Huh-6", "format": "cell-based", "conditions": "Homo sapiens, 60-agent screen, 72 hours, a value of 10,000 indicates that the drug did not inhibit viability, read-out: absolute IC50, Huh-6", "method": "(§2) On day 0, cells were trypsinized and plated into a white walled 384-well plate containing pre-diluted known concentrations of various drugs. After 72 hours, an equal volume of Cell-Titer Glo 2.0 (G9243, Promega) was added to each well, incubated at room temperature while rocking in the dark for 15 minutes, followed by luminescence acquisition with a BioTek Synergy HT plate reader (BioTek, Winooski, VT)."}, "[9]": {"test_system": "normal human hepatocytes", "test": "60-agent chemical screen, cell viability (Cell-Titer Glo), hepatocytes", "format": "cell-based", "conditions": "Hepatocyte", "method": "as §2"}, "[10]": {"test_system": "HepG2", "test": "60-agent chemical screen, cell viability (Cell-Titer Glo), HepG2", "format": "cell-based", "conditions": "Homo sapiens, 60-agent screen, 72 hours, a value of 10,000 indicates that the drug did not inhibit viability, read-out: absolute IC50, HepG2", "method": "as §2"}, "[11]": {"test_system": "hepatoblastoma cell lines HepG2, Huh-6 and HB-214 versus hepatocytes", "test": "60-agent chemical screen, hepatoblastoma cell lines taken together / versus hepatocytes", "method": "as §2"}, "[12]": {"test_system": "HB-214", "test": "60-agent chemical screen, cell viability (Cell-Titer Glo), HB-214", "format": "cell-based", "conditions": "Homo sapiens; 60-agent screen, 72 hours; a value of 10,000 indicates that the drug did not inhibit viability; read-out: absolute IC50, HB-214", "method": "as §2"}, "[13]": {"test_system": "six hepatoblastoma cell cultures", "test": "Cell proliferation study, six hepatoblastoma cell cultures together", "format": "cell-based, human", "experimental": "as §1"}, "[14]": {"test_system": "HB-214", "test": "Cell proliferation study, HB-214", "format": "cell-based", "conditions": "Homo sapiens; 72 h drug exposure, Cell-Titer Glo, average of quadruplicates; read-out: absolute IC50, HB-214", "experimental": "as §1"}, "[15]": {"test_system": "PLK2", "design": "method as in PMID 19383823", "conditions": "read-out: cell-free enzyme IC50, PLK2; cited from earlier work"}, "[16]": {"test_system": "SMMC7721", "design": "method as in PMID 27904765", "conditions": "hepatocellular carcinoma cell line; cited from earlier work"}, "[17]": {"test_system": "HB-214 PDX", "test": "HB-214 hepatoblastoma PDX in athymic nude mice", "format": "in vivo", "conditions": "volasertib 30 mg/kg IV 2qwk, irinotecan 10 mg/kg IP q5d, alone or combined; 6 mice per group", "method": "These fragments were engrafted in the interscapular region of 6-8 week-old female athymic nude mice (Athymic NudeFoxn1^nu, ENVIGO, Gannat, France). After latency period, mice with a subcutaneously growing tumor between 62 and 256 mm^3 were allocated to each treatment arm according to their tumor volume to obtain homogenous mean and median tumor volume in each arm. Treatments were randomly attributed to boxes housing up to five mice. […] Tumor volume (TV) was evaluated by caliper measurement, 2 or 3 times a week during latency and treatment period. The formula Total Volume (TV) (mm^3) = [length (mm) x width (mm)^2]/2 was used, where the length and the width are the longest and the shortest diameters of the tumor. The tumor growth delay index (TGDI) was calculated as the median growth delay in the treated group divided by the median growth delay in the control group, and represented the x-fold time to reach 5-fold the TV at D0.The ratio between the mean TV of a treated group (T) and the mean TV of the control group (C) was calculated at each measurement, and represented the antitumoral activity of the tested compound(s). The tumor growth rate, evaluated by the formula [DT/T0]-1 where DT is the delta of tumor size between the considered day and the day of enrolment and T0 is mean TV at D0, gives the percentage of growth compared with the initial day. […]"}, "[18]": {"test_system": "PLK3", "design": "method as in PMID 19383823", "conditions": "read-out: cell-free enzyme IC50, PLK3; cited from earlier work"}, "[19]": {"test_system": "SK-Hep1", "design": "method as in PMID 27904765", "conditions": "hepatocellular carcinoma cell line; cited from earlier work"}, "[20]": {"conditions": "volasertib; cited from earlier work"}, "[21]": {"test_system": "PLK1", "design": "method as in PMID 19383823", "conditions": "read-out: cell-free enzyme IC50, PLK1; cited from earlier work"}}, "note": "“Also recorded” adds a separate entry of the source. Read-outs that look alike come from different tables or passages of the source.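 Throughout, for IC50, normal hepatocytes: cells were plated onto pre-diluted drug concentrations in 384-well plates, and viability was read after 72 h as CellTiter-Glo 2.0 luminescence.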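 Throughout, for absolute IC50, HepG2: luminescence read-out in 384-well plates, with cells plated directly onto drug dilutions of known concentration.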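 Throughout, for absolute IC50, Hepatocytes: cells were plated onto pre-diluted drug concentrations in 384-well plates, and viability was read after 72 h as CellTiter-Glo 2.0 luminescence.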", "data": [{"smiles": "CCc1c2c(nc3ccc(O)cc13)-c1cc3c(c(=O)n1C2)COC(=O)[C@]3(O)CC", "note": "[SN38]", "values": [{"measurement": "IC50", "setting": "[1]", "result": 210, "unit": "nM"}, {"measurement": "IC50", "setting": "[2]", "result": 200, "unit": "nM"}, {"measurement": "IC50", "setting": "[3]", "result": 500, "unit": "nM"}, {"measurement": "IC50", "setting": "[4]", "result": 160, "unit": "nM"}, {"measurement": "Percent of cells in S phase", "setting": "[5]", "result": 17.7, "unit": "%"}, {"measurement": "Percent of cells in G2/M", "setting": "[5]", "result": 34.3, "unit": "%"}, {"measurement": "Percent of cells in G1", "setting": "[5]", "result": 47.6, "unit": "%"}, {"measurement": "cell cycle arrest as compared to vehicle control", "setting": "[5]", "result": "modest G2/M phase arrest"}, {"measurement": "IC50", "setting": "[6]", "result": 26, "unit": "nM"}, {"measurement": "AUC0-∞", "setting": "[7]; SN38, pediatric study", "result": 0.214, "unit": "µM·h"}, {"measurement": "Cmax", "setting": "[7]; SN38 from clinical trials", "result": 120, "unit": "nM"}]}, {"smiles": "CC(=O)Nc1cccc(-n2c(=O)n(C3CC3)c(=O)c3c(Nc4ccc(I)cc4F)n(C)c(=O)c(C)c32)c1", "note": "[trametinib]", "values": [{"measurement": "IC50", "setting": "[8]", "result": "> 10000", "unit": "nM"}, {"measurement": "IC50", "setting": "[9]; 60-agent screen, 72 hours, a value of 10,000 indicates that the drug did not inhibit viability, read-out: absolute IC50, Hepatocytes", "result": "> 10000", "unit": "nM"}, {"measurement": "IC50", "setting": "[10]", "result": "> 10000", "unit": "nM"}, {"measurement": "effectiveness across the three hepatoblastoma cell lines", "setting": "[11]; 60-agent screen", "result": "only effective in one cell line out of three"}, {"measurement": "IC50", "setting": "[12]", "result": 210, "unit": "nM"}]}, {"smiles": "CC[C@]1(O)C[C@H]2CN(CCc3c([nH]c4ccccc34)[C@@](C(=O)OC)(c3cc4c(cc3OC)N(C=O)[C@H]3[C@@](O)(C(=O)OC)[C@H](OC(C)=O)[C@]5(CC)C=CCN6CC[C@]43[C@@H]65)C2)C1", "note": "[vincristine]", "values": [{"measurement": "sensitivity of hepatoblastoma cell lines to vincristine", "setting": "[13]; 72hr drug exposure, Supplementary Figure 4", "result": "Several cell lines were highly resistant"}, {"measurement": "Cmax", "setting": "[7]; published Cmax of vincristine", "result": 90, "unit": "nM"}]}, {"smiles": "CC[C@@H]1C(=O)N(C)c2cnc(Nc3ccc(C(=O)N[C@H]4CC[C@H](N5CCN(CC6CC6)CC5)CC4)cc3OC)nc2N1C(C)C", "note": "[volasertib]", "values": [{"measurement": "IC50", "setting": "[1]; Homo sapiens", "result": 3300, "unit": "nM"}, {"measurement": "IC50", "setting": "[14]", "result": 725, "unit": "nM"}, {"measurement": "IC50", "setting": "[8]", "result": 3820, "unit": "nM"}, {"measurement": "IC50", "setting": "[2]; Homo sapiens", "result": 2020, "unit": "nM"}, {"measurement": "IC50", "setting": "[15]", "result": 5, "unit": "nM"}, {"measurement": "IC50", "setting": "[16]", "result": 3970, "unit": "nM"}, {"measurement": "tumor growth (mean tumor volume over time)", "setting": "[17]", "result": "appreciable and cytostatic; also recorded: slowed"}, {"measurement": "IC50", "setting": "[18]", "result": 56, "unit": "nM"}, {"measurement": "IC50", "setting": "[3]; Homo sapiens", "result": 1170, "unit": "nM"}, {"measurement": "IC50", "setting": "[19]", "result": 7020, "unit": "nM"}, {"measurement": "IC50", "setting": "[13]; Homo sapiens, range over HB-214, HB-243, HB-279, HB-282, HB-284, HB-295, read-out: IC50 across all six hepatoblastoma cell cultures", "result": "< 10000", "unit": "nM"}, {"measurement": "IC50", "setting": "[9]; as restated in the discussion, read-out: IC50, normal hepatocytes", "result": "> 10000", "unit": "nM"}, {"measurement": "IC50", "setting": "[10]", "result": 528, "unit": "nM"}, {"measurement": "IC50", "setting": "[11]; Homo sapiens, Hepatocyte, read-out: IC50, cancer cells", "result": "360 to 528", "unit": "nM"}, {"measurement": "side effects", "setting": "[20]", "result": "neutropenia and anemia"}, {"measurement": "IC50", "setting": "[4]; Homo sapiens", "result": 252, "unit": "nM"}, {"measurement": "Percent of cells in S phase", "setting": "[5]", "result": 14.2, "unit": "%"}, {"measurement": "Percent of cells in G2/M", "setting": "[5]", "result": 40.7, "unit": "%"}, {"measurement": "Percent of cells in G1", "setting": "[5]", "result": 44.7, "unit": "%"}, {"measurement": "cell cycle arrest as compared to vehicle control", "setting": "[5]", "result": "cell cycle arrest in G2/M"}, {"measurement": "IC50", "setting": "[21]", "result": 0.87, "unit": "nM"}, {"measurement": "IC50", "setting": "[6]; Homo sapiens", "result": 2130, "unit": "nM"}, {"measurement": "Cmax", "setting": "[7]; measured in clinical trials", "result": 1220, "unit": "nM"}, {"measurement": "IC50", "setting": "[12]", "result": 360, "unit": "nM"}]}]}
